These results are taken from ChEMBL document CHEMBL5365478, “Structure-Based Design and Synthesis of Stapled 10Panx1 Analogues for Use in Cardiovascular Inflammatory Diseases” (J Med Chem, 2023).

Data set [1] addresses Pannexin-1 (Rattus norvegicus) (UniProt P60570). Put plainly: Inhibition of PANX1 in rat H9C2 cells assessed as reduction in HOS-induced ATP release at 12.5 to 100 uM preincubated for 10 mins followed by HOS solution addition and measured after 30 mins by bioluminescence analysis. It is filed as cell-based. To be noted: dose 12.5-100 µM, time 40.0 min.
For data set [2], the target named is Pannexin-1 (Homo sapiens) (UniProt Q96RD7). Put plainly: Inhibition of PANX1 in human EA.hy 926 cells assessed as reduction in HOS-induced ATP release at 100 uM preincubated for 10 mins followed by HOS solution addition and measured after 30 mins by bioluminescence analysis. The settings on record: time 40.0 min. It is filed as cell-based.
Sequence of Pannexin-1 (Homo sapiens) (Q96RD7 whole entry): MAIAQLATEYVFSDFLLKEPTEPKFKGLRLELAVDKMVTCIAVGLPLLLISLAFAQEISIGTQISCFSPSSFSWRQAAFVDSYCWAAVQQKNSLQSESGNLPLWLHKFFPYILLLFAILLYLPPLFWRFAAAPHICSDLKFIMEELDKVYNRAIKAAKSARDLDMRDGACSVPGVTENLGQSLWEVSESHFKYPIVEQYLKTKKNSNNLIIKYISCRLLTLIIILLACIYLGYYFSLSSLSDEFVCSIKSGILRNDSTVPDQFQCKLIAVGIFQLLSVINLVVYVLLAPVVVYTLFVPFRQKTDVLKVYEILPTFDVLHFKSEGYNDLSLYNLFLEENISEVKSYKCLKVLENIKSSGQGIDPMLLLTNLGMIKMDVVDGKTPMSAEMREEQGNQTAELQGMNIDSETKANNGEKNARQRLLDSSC
The subject of data set [3] is EA.hy 926. Put plainly: Cytotoxicity against human EA.hy 926 cells at 12.5 to 100 uM incubated for 30 mins with compound in HOS solution by LDH assay. The format is toxicity, cell-based. The settings on record: ea.hy 926, 0.5 h, dose 12.5-100 µM.
The test system of data set [4] is EA.hy 926. Put plainly: Antiinflammatory activity in TNF-alpha stimulated human EA.hy926 cells cocultured with human THP-1 cells assessed as inhibition of monocyte adhesion at 100 uM incubated for 15 mins followed by adhesion for 2 hrs relative to control. It is filed as functional. To be noted: EA.hy 926, 2.25 h, time 135 min.
The subject of data set [5] is B16-BL6. Put plainly: Cytotoxicity against mouse B16-BL6 cells at 6.25 to 100 uM incubated for 30 mins with compound in HOS solution by LDH assay. The format is toxicity, cell-based. To be noted: b16-bl6, 0.5 h, dose 6.25-100 µM.
For data set [6], the target named is Pannexin-1 (Homo sapiens) (UniProt Q96RD7). Put plainly: Inhibition of PANX1 in human EA.hy 926 cells assessed as reduction in HOS-induced ATP release at 12.5 uM preincubated for 10 mins followed by HOS solution addition and measured after 30 mins by bioluminescence analysis relative to control. The settings on record: time 40.0 min. It is filed as cell-based.

The target in data set [7] is Pannexin-1 (Mus musculus) (UniProt Q9JIP4). Put plainly: Inhibition of PANX1 in mouse B16-BL6 cells assessed as reduction in HOS-induced Yo-Pro-1 uptake by measuring reduction in green fluorescence at 100 uM preincubated for 10 mins followed by HOS solution addition and measured after 30 mins by fluorescence based analysis relative to control. The format is cell-based. The settings on record: time 40.0 min.
Sequence of Pannexin-1 (Mus musculus) (Q9JIP4 whole entry): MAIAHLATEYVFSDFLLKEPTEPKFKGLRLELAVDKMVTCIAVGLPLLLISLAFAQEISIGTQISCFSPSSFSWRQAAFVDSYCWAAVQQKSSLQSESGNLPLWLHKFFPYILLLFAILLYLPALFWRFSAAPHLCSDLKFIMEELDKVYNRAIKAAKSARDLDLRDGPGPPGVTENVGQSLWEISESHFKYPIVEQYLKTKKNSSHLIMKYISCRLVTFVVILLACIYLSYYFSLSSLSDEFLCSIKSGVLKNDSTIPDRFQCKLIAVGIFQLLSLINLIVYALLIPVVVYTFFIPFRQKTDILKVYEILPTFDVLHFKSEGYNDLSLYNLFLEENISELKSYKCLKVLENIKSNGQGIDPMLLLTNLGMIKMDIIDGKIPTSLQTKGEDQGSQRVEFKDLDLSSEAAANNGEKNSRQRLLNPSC

Data set [8] has the same target. Put plainly: Inhibition of PANX1 in mouse B16-BL6 cells assessed as reduction in HOS-induced Yo-Pro-1 uptake by measuring reduction in green fluorescence at 12.5 uM preincubated for 10 mins followed by HOS solution addition and measured after 30 mins by fluorescence based analysis. The format is cell-based. The settings on record: time 40.0 min.
Data set [9] in a line: Stability in human plasma assessed as half life at 1.2 mM incubated for 30 mins by LC-MS analysis. The format is ADME, cell-free.
The target of data set [10] is Pannexin-1 (Mus musculus) (UniProt Q9JIP4). Put plainly: Inhibition of PANX1 in mouse B16-BL6 cells assessed as reduction in HOS-induced ATP release preincubated for 10 mins followed by HOS solution addition and measured after 30 mins by bioluminescence analysis. The format is cell-based. The settings on record: dose 6.25-400 µM, time 40.0 min.
Data set [11] has the same target. Put plainly: Inhibition of PANX1 in mouse B16-BL6 cells assessed as reduction in HOS-induced ATP release at 100 uM preincubated for 10 mins followed by HOS solution addition and measured after 30 mins by bioluminescence analysis relative to control. It is filed as cell-based. To be noted: time 40.0 min.
For data set [12], the system named is B16-BL6. Put plainly: Cytotoxicity against mouse B16-BL6 cells at 12.5 to 100 uM incubated for 30 mins with compound in HOS solution by LDH assay. The settings on record: b16-bl6, 0.5 h, dose 12.5-100 µM. It is filed as toxicity, cell-based.
Data set [13] concerns the target Pannexin-1 (Mus musculus) (UniProt Q9JIP4). Put plainly: Inhibition of PANX1 in mouse B16-BL6 cells assessed as reduction in HOS-induced ATP release at 12.5 uM preincubated for 10 mins followed by HOS solution addition and measured after 30 mins by bioluminescence analysis. The settings on record: time 40.0 min. It is filed as cell-based.
Data set [14] concerns EA.hy 926. Put plainly: Antiinflammatory activity in TNF-alpha stimulated human EA.hy926 cells cocultured with human THP-1 cells assessed as inhibition of monocyte adhesion at 12.5 uM incubated for 15 mins followed by adhesion for 2 hrs. The format is functional, cell-based. To be noted: time 135.0 min.
Data set [15] in a line: Stability in human plasma assessed as intact parent compound level measured after 24 hrs by LC-MS analysis. The format is ADME, cell-free. The settings on record: read-out: Stability.

The structures appear in SMILES notation. The source made the active and inactive calls. Bridge positions count the residues as written; N and C are the ends. Square brackets hold non-standard residues; d marks the D form. Triazole bridges read from a SMILES are 1,4-linked. Peptide text beside a SMILES is read from it. Lys(N3) = [N-]=[N+]=NCCCC[C@H](N)C(=O)O; Pra = C#CC[C@H](N)C(=O)O; Ahx = NCCCCCC(=O)O

As a reminder, the inhibition is the percentage by which the read-out fell short of the control. What is called half-life is the time needed for the level to fall by half in the phase considered.

Sequence of Pannexin-1 (Rattus norvegicus) (P60570 whole entry): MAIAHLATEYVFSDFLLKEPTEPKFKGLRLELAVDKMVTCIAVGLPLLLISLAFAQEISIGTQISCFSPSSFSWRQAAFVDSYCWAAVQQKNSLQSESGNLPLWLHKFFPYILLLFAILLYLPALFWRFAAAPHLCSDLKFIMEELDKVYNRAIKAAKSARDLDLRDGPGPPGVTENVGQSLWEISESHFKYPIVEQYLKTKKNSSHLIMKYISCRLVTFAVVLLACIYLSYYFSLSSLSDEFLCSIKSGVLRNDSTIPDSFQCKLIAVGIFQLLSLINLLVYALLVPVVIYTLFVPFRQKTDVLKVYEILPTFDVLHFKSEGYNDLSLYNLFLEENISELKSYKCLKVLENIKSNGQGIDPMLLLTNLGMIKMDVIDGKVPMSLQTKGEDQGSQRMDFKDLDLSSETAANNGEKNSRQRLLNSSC

As to `CC(C)[C@H](NC(=O)[C@H](Cc1ccccc1)NC(=O)[C@H](C)NC(=O)[C@H](C)NC(=O)[C@H](CCC(N)=O)NC(=O)[C@H](CCCNC(=N)N)NC(=O)[C@@H](N)Cc1c[nH]c2ccccc12)C(=O)N[C@@H](CC(=O)O)C(=O)N[C@@H](CO)C(=O)N[C@@H](Cc1ccc(O)cc1)C(=O)O` (H-WRQAAFVDSY-OH), the inhibition result in data set [1] and in data set [8] was “inactive” throughout. Moreover, the inhibition result in [2] is “Active”. Further, the Activity result in the data set on EA.hy 926 [3] and in the data set with B16-BL6 [5] was “Non-Toxic” in each case. The inhibition at 100 µM in the data set on EA.hy 926 [4] turned out to be 17%. Also, the figures for the inhibition in [6], in [7] and in data set [10] were 35%, 14% and “Dose-Dependent Effect”, respectively. In addition, in data set [9], the half-life at 1200 µM was determined as 2.27 min.

In the case of `CC(=O)N[C@H]1Cc2cn(nn2)CCCC[C@@H](C(=O)N[C@H]2Cc3cn(nn3)CCCC[C@@H](C(=O)N[C@@H](Cc3ccc(O)cc3)C(N)=O)NC(=O)[C@H](CC(=O)O)NC(=O)[C@H](C(C)C)NC(=O)[C@H](Cc3ccccc3)NC2=O)NC(=O)[C@H](CCC(N)=O)NC(=O)[C@H](CCCNC(=N)N)NC(=O)[C@H](Cc2c[nH]c3ccccc23)NC1=O` (Ac-[Pra]WRQ[Lys(N3)][Pra]FVD[Lys(N3)]Y-NH2; triazole 1-5, 6-10), the inhibition in [11] was 48%. Further, in the data set with B16-BL6 [12], the Activity entry is given as “Non-Toxic”. Besides, the inhibition result in [13] was “Active”.

Take `CC(C)[C@@H]1NC(=O)[C@H](Cc2ccccc2)NC(=O)[C@@H](NC(=O)[C@@H]2CCCCn3cc(nn3)C[C@H](NC(=O)CCCCCNC(=O)[C@@H](N)CCCCN)C(=O)N[C@@H](Cc3c[nH]c4ccccc34)C(=O)N[C@@H](CCCNC(=N)N)C(=O)N[C@@H](CCC(N)=O)C(=O)N2)Cc2cn(nn2)CCCC[C@@H](C(=O)N[C@@H](Cc2ccc(O)cc2)C(N)=O)NC(=O)[C@H](CC(=O)O)NC1=O` (H-K[Ahx][Pra]WRQ[Lys(N3)][Pra]FVD[Lys(N3)]Y-NH2; triazole 3-7, 8-12): the Activity entry with EA.hy 926 [3] is given as “Non-Toxic”. In addition, in [6], the inhibition amounted to 25%. The inhibition entry in the data set on EA.hy 926 [14] is “Active”. For the same compound, the remaining at 24 h in data set [15] worked out at 20%.
